target: T1, human c-Met (Homo sapiens, UniProt P08581); assay: in vitro kinase assay (homogeneous time-resolved tyrosine kinase assay, METKA); assay type: biochemical; settings: recombinant GST-tagged c-Met cytosolic domain, HTRF, 50 μM MgATP; read-out: Biological Activity (METKA IC50) Activity Code
T1 construct: Recombinant GST-tagged cytosolic domains of human c-Met; 6xHis; made in house; host or cells: Sf9 or Sf21 insect cells (baculovirus)
Source text: Recombinant GST-tagged cytosolic domains of human c-Met and other receptor tyrosine kinases including mouse c-Met, human Ron, KDR, IGFR, EGFR, FGFR, Mer, TrkA and Tie2 are used to determine whether the compounds of the instant invention modulate the enzymatic activities of these kinases.
Soluble recombinant GST-tagged cytosolic domains of c-Met and other receptor tyrosine kinases are expressed in a baculovirus system (Pharmingen) according to a protocol recommended by the manufacturer. The c-DNA encoding each cytosolic domain is subcloned into a baculovirus expression vector (pGcGHLT-A, B or C, Pharmingen) containing an in frame 6× histidine tag and a GST tag. The resulting plasmid construct and BaculoGold baculovirus DNA (Pharmingen) are used to co-transfect Sf9 or Sf21 insect cells. After confirming expression of GST-tagged kinase fusion, a high titer recombinant baculovirus stock is produced, expression conditions are optimized, and a scaled up expression of rat KDR-GST fusion is performed. The fusion kinase is then purified from the insect cell lysate by affinity chromatography using glutathione agarose (Pharmingen). The purified protein is dialyzed against 50% glycerol, 2 mM DTT, 50 mM Tris-HCl (pH 7.4) and stored at −20° C. The protein concentrations of the fusion proteins are determined using Coomassie Plus Protein Assay (Pierce) with BSA as standard.
The kinase activities of c-Met and other kinases are measured using a modified version of the homogeneous time-resolved tyrosine kinase assay described by Park et al. (1999, Anal. Biochem. 269:94-104).
The procedure for determining the potency of a compound to inhibit c-Met kinase comprises the following steps: • 1. Prepare 3-fold serial diluted compound solutions in 100% dimethyl sulfoxide (DMSO) at 20× of the desired final concentrations in a 96 well plate. • 2. Prepare a master reaction mix containing 6.67 mM MgCl2, 133.3 mM NaCl, 66.7 mM Tris-HCl (pH 7.4), 0.13 mg/ml BSA, 2.67 mM dithiothreitol, 0.27 nM recombinant c-Met and 666.7 nM biotinylated synthetic peptide substrate (biotin-ahx-EQEDEPEGDYFEWLE-CONH2) (SEQ.ID.NO.:1). • 3. In a black assay plate, add 2.5 μl of compound solution (or DMSO) and 37.5 μl of master reaction mix per well. Initiate the kinase reaction by adding 10 μl of 0.25 mM MgATP per well. Allow the reactions to proceed for 80 min at room temperature. The final conditions for the reaction are 0.2 nM c-Met, 0.5 μM substrate, 50 μM MgATP, […], 100 mM NaCl, 2 mM DTT, 0.1 mg/ml BSA, 50 mM Tris (pH 7.4) and 5% DMSO. • 4. Stop the kinase reaction with 50 μl of Stop/Detection buffer containing 10 mM EDTA, 25 mM HEPES, 0.1% TRITON X-100, 0.126 μg/ml Eu-chelate labeled anti-phosphotyrosine antibody PY20 (cat. #AD0067, PerkinElmer) and 45 μg/ml Streptavidin-allophycocyanin conjugate (cat. #PJ25S, Prozyme). • 5. Read HTRF signals on a Victor reader (PerkinElmer) in HTRF mode after 60 min. • 6. IC50 is determined by fitting the observed relationship between compound concentration and HTRF signal with a 4-parameter logistic equation. Essentially the same procedure was used to determine the potency of compounds to inhibit mouse c-Met, human Ron, KDR, IGFR, EGFR, FGFR, Mer, TrkA and Tie2 except that the concentration of enzyme varied in individual assays (0.2 nM mouse c-Met; 2.5 nM Ron, 8 nM KDR; 0.24 nM IGFR; 0.24 nM EGFR; 0.14 nM FGFR; 16 nM Mer; 8 nM TrkA; 8 nM Tie2).

T1 sequence (P08581 956-1390 limits assumed): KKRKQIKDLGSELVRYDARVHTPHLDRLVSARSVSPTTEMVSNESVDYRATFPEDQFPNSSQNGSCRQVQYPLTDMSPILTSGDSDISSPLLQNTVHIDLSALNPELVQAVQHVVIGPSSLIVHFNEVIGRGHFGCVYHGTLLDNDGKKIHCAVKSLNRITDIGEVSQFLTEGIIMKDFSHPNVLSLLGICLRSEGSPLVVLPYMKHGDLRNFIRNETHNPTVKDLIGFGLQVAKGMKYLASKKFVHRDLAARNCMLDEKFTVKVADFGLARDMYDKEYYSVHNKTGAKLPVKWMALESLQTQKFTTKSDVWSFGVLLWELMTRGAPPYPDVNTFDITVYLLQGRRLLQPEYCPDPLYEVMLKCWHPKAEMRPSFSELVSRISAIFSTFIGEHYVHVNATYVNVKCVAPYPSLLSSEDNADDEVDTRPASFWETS

| Structure (SMILES) | IC50 |
| --- | --- |
| COCCOc1cnc2ccc(C(C)Oc3nn(-c4cnn(C)c4)ccc3=O)cc2c1 (single isomer, unassigned) [Example 144, 3-{1-[3-(2-methoxyethoxy)quinolin-6-yl]ethoxy}-1-(1-methyl-1H-pyrazol-4-yl)pyridazin-4(1H)-one] | 100 to 1000 nM |
| CCOc1cnc2ccc(C(C)Oc3nn(-c4cnn(C)c4)ccc3=O)cc2c1 (single isomer, unassigned) [Example 142, 3-[1-(3-ethoxyquinolin-6-yl)ethoxy]-1-(1-methyl-1H-pyrazol-4-yl)pyridazin-4(1H)-one] | 1000 to 3000 nM |
| Cn1cc(-n2ccc(=O)c(COc3ccc(C(=O)NCC(F)(F)F)cc3)n2)cn1 [Example 18, 4-{[1-(1-methyl-1H-pyrazol-4-yl)-4-oxo-1,4-dihydropyridazin-3-yl]methoxy}-N-(2,2,2-trifluoroethyl) benzamide] | 1000 to 3000 nM |
| CCOC(=O)c1ccc(OCc2nn(-c3cnn(C)c3)ccc2=O)cc1 [Example 12, ethyl 4-{[1-(1-methyl-1H-pyrazol-4-yl)-4-oxo-1,4-dihydropyridazin-3-yl]methoxy}benzoate] | 100 to 1000 nM |
| CNC(=O)c1ccc(OCc2nn(-c3cnn(C)c3)ccc2=O)cc1 [Example 16, N-methyl-4-{[1-(1-methyl-1H-pyrazol-4-yl)-4-oxo-1,4-dihydropyridazin-3-yl]methoxy}benzamide] | 100 to 1000 nM |
| Cn1cc(-n2ccc(=O)c(CCc3ccc4nccnc4c3)n2)cn1 [Example 60, 1-(1-Methyl-1H-pyrazol-4-yl)-3-[2-(quinoxalin-6-yl)ethyl]pyridazin-4(1H)-one] | 1000 to 3000 nM |
| Cn1cc(-n2ccc(=O)c(COc3ccc(NCCCCO)cc3)n2)cn1 [Example 116, 3-((4-(4-hydroxybutylamino)phenoxy)methyl)-1-(1-methyl-1H-pyrazol-4-yl)pyridazin-4(1H)-one] | 1000 to 3000 nM |
| CC(Oc1nn(-c2cnn(C)c2)ccc1=O)c1ccc2ncccc2c1 (single isomer, unassigned) [Example 139, 1-(1-methyl-1H-pyrazol-4-yl)-3-(1-quinolin-6-ylethoxy)pyridazin-4(1H)-one] | 100 to 1000 nM |
| Cn1cc(-n2ccc(=O)c(CCc3ccc(N)cc3)n2)cn1 [Example 117, 3-[2-(4-aminophenyl)ethyl]-1-(1-methyl-1H-pyrazol-4-yl)pyridazin-4(1H)-one] | 1000 to 3000 nM |
| COc1ccc2cc(OCc3nn(-c4cnn(C)c4)ccc3=O)ccc2n1 [Example 49, 3-{[(2-methoxyquinolin-6-yl)oxy]methyl}-1-(1-methyl-1H-pyrazol-4-yl)pyridazin-4(1H)-one] | 100 to 1000 nM |
| COC(=O)c1ccc(CCc2nn(-c3cnn(C)c3)ccc2=O)cc1 [Example 56, methyl 4-{2-[1-(1-methyl-1H-pyrazol-4-yl)-4-oxo-1,4-dihydropyridazin-3-yl]ethyl}benzoate] | 1000 to 3000 nM |
| Cn1cc(-n2ccc(=O)c(COc3ccc4nc(C#N)sc4c3)n2)cn1 [Example 14, 6-{[1-(1-methyl-1H-pyrazol-4-yl)-4-oxo-1,4-dihydropyridazin-3-yl]methoxy}-1,3-benzothiazole-2-carbonitrile] | 1000 to 3000 nM |
| CCn1cc(-n2ccc(=O)c(COc3ccc4ncc(-c5ccccc5F)cc4c3)n2)cn1 [Example 83, 1-(1-ethyl-1H-pyrazol-4-yl)-3-({[3-(2-fluorophenyl)quinolin-6-yl]oxy}methyl)pyridazin-4(1H)-one] | < 100 nM |
| CCOC(=O)Nc1ccc(CCc2nn(-c3cnn(C)c3)ccc2=O)cc1 [Example 121, ethyl (4-{2-[1-(1-methyl-1H-pyrazol-4-yl)-4-oxo-1,4-dihydropyridazin-3-yl]ethyl}phenyl)carbamate] | 1000 to 3000 nM |
| COCCOc1cnc2ccc(SCc3nn(-c4cnn(C)c4)ccc3=O)cc2c1 [Example 99, 3-({[3-(2-Methoxyethoxy)quinolin-6-yl]sulfanyl}methyl)-1-(1-methyl-1H-pyrazol-4-yl)pyridazin-4(1H)-one] | < 100 nM |
| Cn1cc(-n2ccc(=O)c(COc3ccc4ncc(-c5cnn(C6CNC6)c5)cc4c3)n2)cn1 [Example 93, 3-[({3-[1-(Azetidin-3-yl)-1H-pyrazol-4-yl]quinolin-6-yl}oxy)methyl]-1-(1-methyl-1H-pyrazol-4-yl)pyridazin-4(1H)-one] | < 100 nM |
| CCn1cc(-n2ccc(=O)c(OC(C)c3ccc4nccc(OC)c4c3)n2)cn1 (single isomer, unassigned) [Example 146, 1-(1-ethyl-1H-pyrazol-4-yl)-3-[1-(4-methoxyquinolin-6-yl)ethoxy]pyridazin-4(1H)-one] | < 100 nM |
| CCn1cc(-n2ccc(=O)c(COc3ccc4ncc(-c5ccc(OC)cc5)cc4c3)n2)cn1 [Example 79, 1-(1-ethyl-1H-pyrazol-4-yl)-3-({[3-(4-methoxyphenyl)quinolin-6-yl]oxy}methyl)pyridazin-4(1H)-one] | < 100 nM |

More lines, now with the values ahead:

| IC50 | Structure (SMILES) |
| --- | --- |
| < 100 nM | CCc1cnc2ccc(OCc3nn(-c4cnn(C)c4)ccc3=O)cc2c1 [Example 72, 3-{[(3-ethylquinolin-6-yl)oxy]methyl}-1-(1-methyl-1H-pyrazol-4-yl)pyridazin-4(1H)-one] |
| < 100 nM | CCn1cc(-n2ccc(=O)c(COc3ccc4ncc(-c5ccc(Cl)nc5)cc4c3)n2)cn1 [Example 88, 3-({[3-(6-chloropyridin-3-yl)quinolin-6-yl]oxy}methyl)-1-(1-ethyl-1H-pyrazol-4-yl)pyridazin-4(1H)-one] |
| < 100 nM | COCCOc1cnc2ccc(OCc3nn(-c4cc(F)cc(F)c4)ccc3=O)cc2c1 [Example 31, 1-(3,5-difluorophenyl)-3-({[3-(2-methoxyethoxy)quinolin-6-yl]oxy}methyl)pyridazin-4(1H)-one] |
| < 100 nM | CCn1cc(-n2ccc(=O)c(COc3ccc4ncc(-c5ccc(N6CCOCC6)nc5)cc4c3)n2)cn1 [Example 87, 1-(1-ethyl-1H-pyrazol-4-yl)-3-({[3-(6-morpholin-4-ylpyridin-3-yl)quinolin-6-yl]oxy}methyl)pyridazin-4(1H)-one] |
| < 100 nM | CCn1cc(-n2ccc(=O)c(COc3ccc4ncc(-c5cscn5)cc4c3)n2)cn1 [Example 86, 1-(1-ethyl-1H-pyrazol-4-yl)-3-({[3-(1,3-thiazol-4-yl)quinolin-6-yl]oxy}methyl)pyridazin-4(1H)-one] |
| < 100 nM | CCOc1cnc2ccc(OCc3nn(-c4cc(Cl)cc(C#N)c4)ccc3=O)cc2c1 [Example 45, 3-chloro-5-[3-{[(3-ethoxyquinolin-6-yl)oxy]methyl}-4-oxopyridazin-1(4H)-yl]benzonitrile] |
| < 100 nM | Cn1cc(-n2ccc(=O)c(COc3ccc4ncc(OCC(F)F)cc4c3)n2)cn1 [Example 65, 3-({[3-(2,2-difluoroethoxy)quinolin-6-yl]oxy}methyl)-1-(1-methyl-1H-pyrazol-4-yl)pyridazin-4(1H)-one] |
| < 100 nM | Cn1cc(-n2ccc(=O)c(COc3ccc4[nH]c(-c5ccccc5)nc4c3)n2)cn1 [Example 19, 1-(1-methyl-1H-pyrazol-4-yl)-3-{[(2-phenyl-1H-benzimidazol-5-yl)oxy]methyl}pyridazin-4(1H)-one] |
| < 100 nM | CCn1cc(-n2ccc(=O)c(COc3ccc4ncc(-c5cccc(F)c5)cc4c3)n2)cn1 [Example 90, 1-(1-ethyl-1H-pyrazol-4-yl)-3-({[3-(3-fluorophenyl)quinolin-6-yl]oxy}methyl)pyridazin-4(1H)-one] |
| < 100 nM | CCn1cc(-n2ccc(=O)c(COc3ccc4ncc(-c5ccc(OC)nc5)cc4c3)n2)cn1 [Example 82, 1-(1-ethyl-1H-pyrazol-4-yl)-3-({[3-(6-methoxypyridin-3-yl)quinolin-6-yl]oxy}methyl)pyridazin-4(1H)-one] |

Source: patent US20130116231A1, “TYROSINE KINASE INHIBITORS” (Merck Sharp & Dohme Corp., priority 2010, published 2013)
